Laboratory results from patent US20240279236A1, “COMPOUNDS AND METHODS OF TREATING TUBERCULOSIS” (Fimbrion Therapeutics, Inc., priority 2021, published 2024).

These compounds were tested on WT Mtb Erdman strain (assay: Microplate Alamar Blue Assay (MABA), Mtb growth inhibition). Conditions: Mycobacterium tuberculosis, ERDMAN, 168 h, Middlebrook 7H9 media, 7 days at 37° C. in 5% CO2.
Assay type: cell-based, Mycobacterium tuberculosis

Compared with `Cc1cc2c(NCCCc3ccccc3)nc(-n3ccnc3)nc2s1` [Example 131, 2-(1H-imidazol-1-yl)-6-methyl-N-(3-phenylpropyl)thieno [2,3-d]pyrimidin-4-amine], `Cc1cc2c(NCCCc3ccccc3)nc(-c3cnn(C)c3)nc2s1` [Example 133, 6-methyl-2-(1-methyl-1H-pyrazol-4-yl)-N-(3-phenylpropyl)thieno [2,3-d]pyrimidin-4-amine] is 11-fold lower in IC50: 3000 nM for the first, 270 nM for the second.

First: Cc1ccc(-c2nc(NCCCc3ccccc3)c3cc(C)sc3n2)o1 [Example 132, 6-methyl-2-(5-methylfuran-2-yl)-N-(3-phenylpropyl)thieno [2,3-d]pyrimidin-4-amine]
Second: Cc1cc(-c2nc(NCCCc3ccccc3)c3cc(C)sc3n2)c(C)o1 [Example 139, 2-(2,5-dimethylfuran-3-yl)-6-methyl-N-(3-phenylpropyl)thieno [2,3-d]pyrimidin-4-amine]
The IC50 of the first is lower: 6600 nM for the first, > 10000 nM for the second.

Compared with `Cc1cc2c(NCCCc3ccccc3)nc(CC(C)C)nc2s1` [Example 134, 2-isobutyl-6-methyl-N-(3-phenylpropyl)thieno [2,3-d]pyrimidin-4-amine], `Cc1cc2c(NCCCc3ccccc3)nc(C(C)Cl)nc2s1` (centres unmarked) [Example 135, 2-(1-chloroethyl)-6-methyl-N-(3-phenylpropyl)thieno [2,3-d]pyrimidin-4-amine] is 1.9-fold lower in IC50: 440 nM for the first, 230 nM for the second. The second is the more potent here.

Compared with `CCc1nc(NCCCc2ccc(OC(F)(F)F)c(C)c2)c2cc(C)sc2n1` [Example 136, 2-ethyl-6-methyl-N-(3-(3-methyl-4-(trifluoromethoxy)phenyl)propyl)thieno [2,3-d]pyrimidin-4-amine], `COc1ccccc1CCCNc1nc(C(F)(F)F)nc2sc(C)cc12` [Example 161, N-(3-(2-methoxyphenyl)propyl)-6-methyl-2-(trifluoromethyl) thieno[2,3-d]pyrimidin-4-amine] is 6.4-fold higher in IC50: 690 nM for the first, 4400 nM for the second. The first is the more potent here.

`Cc1cc2c(NCCCc3ccccc3)nc(Cc3ccc(F)cc3)nc2s1` [Example 137, 2-(4-fluorobenzyl)-6-methyl-N-(3-phenylpropyl)thieno [2,3-d]pyrimidin-4-amine] and `Cc1cc2c(NCCCc3ccccc3)nc(CCc3ccccc3)nc2s1` [Example 138, 6-methyl-2-phenethyl-N-(3-phenylpropyl)thieno [2,3-d]pyrimidin-4-amine] cannot be ordered by IC50: > 10000 nM for the first, > 10000 nM for the second.

Compared with `Cc1cc(Cc2nc(NCCCc3ccccc3)c3cc(C)sc3n2)no1` [Example 140, 6-methyl-2-((5-methylisoxazol-3-yl)methyl)-N-(3-phenylpropyl)thieno [2,3-d]pyrimidin-4-amine], `Cc1nc(-c2nc(NCCCc3ccccc3)c3cc(C)sc3n2)co1` [Example 141, 6-methyl-2-(2-methyloxazol-4-yl)-N-(3-phenylpropyl)thieno [2,3-d]pyrimidin-4-amine] is lower in IC50: > 10000 nM for the first, 1200 nM for the second.

`Cc1cc2c(NCCCc3ccccc3)nc(SCc3ccccc3)nc2s1` [Example 142, 2-(benzylthio)-6-methyl-N-(3-phenylpropyl)thieno [2,3-d]pyrimidin-4-amine] and `Cc1cc2c(NCCCc3ccccc3)nc(Sc3ccccc3)nc2s1` [Example 154, 6-methyl-N-(3-phenylpropyl)-2-(phenylthio)thieno[2,3-d]pyrimidin-4-amine] cannot be ordered by IC50: > 10000 nM for the first, > 10000 nM for the second.

`Cc1cc2c(NCCCc3ccccc3)nc(-c3ncon3)nc2s1` [Example 143, 6-methyl-2-(1,2,4-oxadiazol-3-yl)-N-(3-phenylpropyl)thieno [2,3-d]pyrimidin-4-amine] and `Cc1cc2c(NCCCc3ccccc3)nc(N=[N+]=[N-])nc2s1` [Example 156, 2-azido-6-methyl-N-(3-phenylpropyl)thieno [2,3-d]pyrimidin-4-amine] are within 1.5-fold of each other in IC50: 220 nM for the first, 160 nM for the second.

Compared with `Cc1nc2c(N[C@@H]3C[C@H]3c3ccc(F)c(F)c3)nc(-c3ccc(C(F)(F)F)cn3)nc2s1` [Example 144, N-((1R,2S)-2-(3,4-difluorophenyl)cyclopropyl)-2-methyl-5-(5-(trifluoromethyl)pyridin-2-yl)thiazolo[5,4-d]pyrimidin-7-amine], `Cc1nc2c(N[C@@H]3C[C@H]3c3ccc(F)c(F)c3)nc(-c3ccc(F)cn3)nc2s1` [Example 146, N-((1R,2S)-2-(3,4-difluorophenyl)cyclopropyl)-5-(5-fluoropyridin-2-yl)-2-methylthiazolo[5,4-d]pyrimidin-7-amine] is lower in IC50: > 10000 nM for the first, 5100 nM for the second.

First: Cc1nc2c(NCCCc3ccccc3)nc(-c3ccc(C(F)(F)F)cn3)nc2s1 [Example 145, 2-methyl-N-(3-phenylpropyl)-5-(5-(trifluoromethyl)pyridin-2-yl)thiazolo[5,4-d]pyrimidin-7-amine]
Second: Cc1nc2c(NCCCc3ccccc3)nc(-c3ccc(F)cn3)nc2s1 [Example 147, 5-(5-fluoropyridin-2-yl)-2-methyl-N-(3-phenylpropyl)thiazolo [5,4-d]pyrimidin-7-amine]
The IC50 of the first is 3.5-fold higher: 7300 nM for the first, 2100 nM for the second.

Going from `Cc1nc2c(N[C@@H]3C[C@H]3c3ccc(F)c(F)c3)nc(-c3ccncn3)nc2s1` [Example 148, N-((1R,2S)-2-(3,4-difluorophenyl)cyclopropyl)-2-methyl-5-(pyrimidin-4-yl)thiazolo[5,4-d]pyrimidin-7-amine] to `COc1nc(N[C@@H]2C[C@H]2c2ccc(F)c(F)c2)c2cc(C)sc2n1` [Example 151, N-((1R,2S)-2-(3,4-difluorophenyl)cyclopropyl)-2-methoxy-6-methylthieno[2,3-d]pyrimidin-4-amine], the IC50 falls from > 10000 nM to 260 nM.

Compared with `Cc1nc2c(NCCCc3ccccc3)nc(-c3ccncn3)nc2s1` [Example 149, 2-methyl-N-(3-phenylpropyl)-5-(pyrimidin-4-yl)thiazolo[5,4-d]pyrimidin-7-amine], `Cc1cc2c(NCCCc3ccccc3)nc(C(F)(F)F)nc2s1` [Example 166, 6-methyl-N-(3-phenylpropyl)-2-(trifluoromethyl) thieno[2,3-d] pyrimidin-4-amine] is lower in IC50: 2000 nM for the first, < 510 nM for the second. The second is the more potent here.

Compared with `CCOc1nc(N[C@@H]2C[C@H]2c2ccc(F)c(F)c2)c2cc(C)sc2n1` [Example 150, N-((1R,2S)-2-(3,4-difluorophenyl)cyclopropyl)-2-ethoxy-6-methylthieno[2,3-d]pyrimidin-4-amine], `Cc1cc2c(N[C@@H]3C[C@H]3c3ccc(F)c(F)c3)nc(Oc3ccccc3)nc2s1` [Example 153, N-((1R,2S)-2-(3,4-difluorophenyl)cyclopropyl)-6-methyl-2-phenoxythieno[2,3-d]pyrimidin-4-amine] is higher in IC50: 380 nM for the first, > 10000 nM for the second.

Compared with `Cc1cc2c(NC/C=C/c3ccccc3)nc(C(F)(F)F)nc2s1` [Example 152, N-cinnamyl-6-methyl-2-(trifluoromethyl) thieno[2,3-d] pyrimidin-4-amine], `Cc1cc2c(NCC#Cc3ccccc3)nc(C(F)(F)F)nc2s1` [Example 162, 6-methyl-N-(3-phenylprop-2-yn-1-yl)-2-(trifluoromethyl) thieno[2,3-d] pyrimidin-4-amine] is 14-fold higher in IC50: 440 nM for the first, 6000 nM for the second. The first is the more potent here.

First: Cc1cc2c(N[C@@H]3C[C@H]3c3ccc(F)c(F)c3)nc(Sc3ccccc3)nc2s1 [Example 155, N-((1R,2S)-2-(3,4-difluorophenyl)cyclopropyl)-6-methyl-2-(phenylthio)thieno[2,3-d]pyrimidin-4-amine]
Second: Cc1cc2c(N[C@@H]3C[C@H]3c3ccccc3)nc(C(F)(F)F)nc2s1 [Example 167, 6-methyl-N-((1R,2S)-2-phenylcyclopropyl)-2-(trifluoromethyl) thieno[2,3-d] pyrimidin-4-amine]
The IC50 of the first is higher: > 10000 nM for the first, 490 nM for the second.

`Cc1cc2c(NCCCc3ccncc3)nc(C(F)(F)F)nc2s1` [Example 157, 6-methyl-N-(3-(pyridin-4-yl)propyl)-2-(trifluoromethyl) thieno[2,3-d] pyrimidin-4-amine] and `Cc1cc2c(NCCCc3cccnc3)nc(C(F)(F)F)nc2s1` [Example 158, 6-methyl-N-(3-(pyridin-3-yl)propyl)-2-(trifluoromethyl) thieno[2,3-d] pyrimidin-4-amine] cannot be ordered by IC50: > 10000 nM for the first, > 6900 nM for the second.

First: Cc1cc2c(NCCCc3ccccn3)nc(C(F)(F)F)nc2s1 [Example 159, 6-methyl-N-(3-(pyridin-2-yl)propyl)-2-(trifluoromethyl)thieno [2,3-d]pyrimidin-4-amine]
Second: Cc1cc2c(NCCCn3cccc3)nc(C(F)(F)F)nc2s1 [Example 164, N-(3-(1H-pyrrol-1-yl)propyl)-6-methyl-2-(trifluoromethyl) thieno[2,3-d] pyrimidin-4-amine]
The IC50 of the first is higher: > 10000 nM for the first, 1700 nM for the second.

Going from `Cc1cc2c(NCCC(c3ccccc3)c3ccccc3)nc(C(F)(F)F)nc2s1` [Example 160, N-(3,3-diphenylpropyl)-6-methyl-2-(trifluoromethyl) thieno[2,3-d] pyrimidin-4-amine] to `CCc1nc(NCCC(c2ccccc2)c2ccccc2)c2cc(C)sc2n1` [Example 170, N-(3,3-diphenylpropyl)-2-ethyl-6-methylthieno[2,3-d]pyrimidin-4-amine], the IC50 falls from 1100 nM to 360 nM (3.1-fold). The second is the more potent here.

`Cc1cc2c(NCC(O)Cc3ccccc3)nc(C(F)(F)F)nc2s1` (centres unmarked) [Example 163, 1-((6-methyl-2-(trifluoromethyl)thieno[2,3-d]pyrimidin-4-yl)amino)-3-phenylpropan-2-ol] and `Cc1cc2c(NCCC(O)c3ccccc3)nc(C(F)(F)F)nc2s1` (centres unmarked) [Example 171, 3-((6-methyl-2-(trifluoromethyl)thieno [2,3-d]pyrimidin-4-yl)amino)-1-phenylpropan-1-ol] cannot be ordered by IC50: > 10000 nM for the first, > 9500 nM for the second.

Compared with `Cc1cc2c(NCCCN3CCCc4ccccc43)nc(C(F)(F)F)nc2s1` [Example 165, N-(3-(3,4-dihydroquinolin-1(2H)-yl)propyl)-6-methyl-2-(trifluoromethyl) thieno[2,3-d] pyrimidin-4-amine], `Cc1cc2c(N[C@H]3C[C@@H]3c3ccccc3)nc(C(F)(F)F)nc2s1` [Example 168, 6-methyl-N-((1S,2R)-2-phenylcyclopropyl)-2-(trifluoromethyl) thieno[2,3-d] pyrimidin-4-amine] is 1.6-fold higher in IC50: 2000 nM for the first, 3200 nM for the second.

With `Cc1cc2c(NC(CCc3ccccc3)C(F)(F)F)nc(C(F)(F)F)nc2s1` (centres unmarked) [Example 169, 6-methyl-N-(1,1,1-trifluoro-4-phenylbutan-2-yl)-2-(trifluoromethyl) thieno[2,3-d] pyrimidin-4-amine] the IC50 was > 10000 nM.
